Calls of active or inactive are those of the source. No cut-off for these calls is given here.
Experiments:
[1] = target: T1, Kinesin-like protein KIF11 (Homo sapiens) (UniProt P52732); experiment: Inhibition of kinasin spindle protein by ATPase assay
T1 sequence (whole entry): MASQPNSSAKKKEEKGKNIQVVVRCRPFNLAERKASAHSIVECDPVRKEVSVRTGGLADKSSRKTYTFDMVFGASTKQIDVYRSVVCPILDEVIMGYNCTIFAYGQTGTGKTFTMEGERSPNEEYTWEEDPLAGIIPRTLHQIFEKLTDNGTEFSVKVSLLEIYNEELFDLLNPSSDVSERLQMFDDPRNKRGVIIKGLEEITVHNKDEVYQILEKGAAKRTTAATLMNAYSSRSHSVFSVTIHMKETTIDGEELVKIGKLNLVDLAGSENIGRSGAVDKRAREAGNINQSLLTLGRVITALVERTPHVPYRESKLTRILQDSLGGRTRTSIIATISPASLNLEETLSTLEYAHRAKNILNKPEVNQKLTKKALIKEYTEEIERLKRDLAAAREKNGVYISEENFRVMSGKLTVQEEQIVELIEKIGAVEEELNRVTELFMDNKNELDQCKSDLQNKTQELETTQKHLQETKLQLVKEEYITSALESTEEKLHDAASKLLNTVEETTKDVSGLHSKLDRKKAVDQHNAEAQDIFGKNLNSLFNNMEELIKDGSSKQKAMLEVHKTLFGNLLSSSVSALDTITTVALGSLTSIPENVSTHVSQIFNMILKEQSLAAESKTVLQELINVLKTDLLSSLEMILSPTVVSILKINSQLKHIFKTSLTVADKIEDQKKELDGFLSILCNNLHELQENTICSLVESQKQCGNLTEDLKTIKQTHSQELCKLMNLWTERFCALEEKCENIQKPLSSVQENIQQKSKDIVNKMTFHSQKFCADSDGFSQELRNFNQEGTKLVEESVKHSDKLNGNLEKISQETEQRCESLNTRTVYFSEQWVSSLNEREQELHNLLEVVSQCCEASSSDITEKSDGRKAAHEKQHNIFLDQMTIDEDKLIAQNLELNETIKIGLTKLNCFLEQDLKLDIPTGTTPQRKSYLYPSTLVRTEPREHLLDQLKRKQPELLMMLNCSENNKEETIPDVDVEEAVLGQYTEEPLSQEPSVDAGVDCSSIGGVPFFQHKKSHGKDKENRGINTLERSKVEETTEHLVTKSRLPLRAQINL

[2] = target: T1, Kinesin-like protein KIF11 (Homo sapiens); experiment: Inhibition of kinasin spindle protein in human HeLa cells assessed as inhibition of induction of mitotic arrest; assay type: cell-based
[3] = Toxicity in african green monkey BSC1 cells at 100 uM; assay type: cell-based; settings: chlorocebus aethiops, bsc-1, 100 µM
[4] = test system: HeLa; experiment: Toxicity in human HeLa cells at 100 uM; assay type: cell-based

Structure (SMILES)	inhibition [1]	inhibition [2]	Activity [3]	Activity [4]
Cc1cc2n(n1)[C@H]1C[C@@](C)(N2)Oc2ccccc21	inactive	inactive		
C[C@@]12C[C@@H](c3ccccc3O1)n1c(nc3ccccc31)N2	inactive	inactive	Toxic	Toxic
C[C@@]12C[C@@H](c3ccccc3O1)n1nnnc1N2	inactive	inactive		
CC1=C2C(=O)Oc3ccccc3C2c2c(n[nH]c2C)N1 (centres undefined)	inactive	inactive		

More lines, main results first:

inhibition [1]	inhibition [2]	Structure (SMILES)	Activity [3]	Activity [4]
inactive	inactive	C[C@@]12C[C@@H](c3ccccc3O1)N1CCSC1=N2		
inactive	inactive	COC(=O)C1=C(C)Nc2n[nH]c(C)c2C1c1cccc(O)c1 (centres undefined)		
